Patent US7589123B2, “Chemical compounds” (Phytopharm PLC, priority 2006, dated 2009)

Legend:
TRPV1 receptor = TRPV1 receptor (Rattus norvegicus, UniProt O35433); assay: TRPV1 receptor modulation in the rat vas deferens, EFS-induced contraction (Assay 1); conditions: electrical field stimulation, read-out: Inhibition of EFS response relative to capsaicin
Description: Wistar derived male rats (275±25 g) were suppressed by CO2 overexposure. The vas deferens was removed, placed in Krebs solution, pH 7.4 (composition in g/l: NaCl 6.89, KCl 0.35, CaCl2 0.277, KH2PO4 0.163, MgSO4.7H2O 0.296, NaHCO3 2.1 glucose 1.8) and excess fat and connective tissue removed. The portion of the vas deferens closest to the prostate was cut in half and each half was placed under 1 g tension in a 10 ml bath containing Krebs solution at 32° C. The tissue was contracted by electrical field stimulation (EFS; 60% of maximum stimulation, 0.015 Hz, 0.5 ms in duration) and contractile responses were measured.

5-lipoxygenase = target: T1, 5-lipoxygenase (Homo sapiens, UniProt P09917); assay: 5-lipoxygenase activity (LTB4) in human peripheral blood mononuclear leukocytes (Assay 6); format: cell-based; conditions: human PBMLs, A23187 30 μM, read-out: Inhibition of 5-LO (%)
T1 construct: endogenous in cells; host or cells: human peripheral blood mononuclear leukocytes (PBMLs)
T1 sequence (P09917 1-674): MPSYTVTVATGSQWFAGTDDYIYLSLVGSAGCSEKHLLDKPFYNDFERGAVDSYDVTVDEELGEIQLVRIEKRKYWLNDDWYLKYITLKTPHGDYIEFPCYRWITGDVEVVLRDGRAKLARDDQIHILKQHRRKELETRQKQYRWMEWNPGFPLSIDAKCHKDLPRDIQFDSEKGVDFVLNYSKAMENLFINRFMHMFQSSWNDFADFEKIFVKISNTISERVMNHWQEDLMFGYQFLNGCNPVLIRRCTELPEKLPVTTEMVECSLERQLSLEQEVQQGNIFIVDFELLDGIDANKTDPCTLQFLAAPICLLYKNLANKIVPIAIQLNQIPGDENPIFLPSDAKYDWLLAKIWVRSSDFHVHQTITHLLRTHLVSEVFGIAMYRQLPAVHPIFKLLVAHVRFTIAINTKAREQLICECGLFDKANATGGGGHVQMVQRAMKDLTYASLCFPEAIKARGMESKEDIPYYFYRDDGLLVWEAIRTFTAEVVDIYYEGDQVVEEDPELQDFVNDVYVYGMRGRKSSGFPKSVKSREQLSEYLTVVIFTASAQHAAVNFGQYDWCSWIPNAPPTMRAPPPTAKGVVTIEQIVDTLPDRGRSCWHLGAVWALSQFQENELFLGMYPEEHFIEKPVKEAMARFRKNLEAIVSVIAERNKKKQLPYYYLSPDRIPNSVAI
Method in brief: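 Human PBMLs (5×10^6 cells, Ficoll-isolated) stimulated with 30 μM A23187 plus compound at 3 or 30 μM or 0.1% DMSO in HBSS pH 7.4, 37° C., 15 min. After NaOH neutralisation and centrifugation, supernatant LTB4 measured by enzyme immunoassay.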

[1] = test system: histamine-induced contractions in guinea pig ileum; assay: Inhibition of histamine-induced contractions in guinea pig ileum (Assay 3); conditions: Cavia porcellus, histamine 1.7 μM, read-out: Inhibition of histamine-induced contraction (%)
Method in brief: (§1)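 Isolated male guinea pig ileum strips in Krebs at 32° C, pH 7.4, 1 g resting tension, isotonic recording. Contraction to test compound (3 and 30 μM) alone recorded, then inhibition of responses to histamine 1.7 μM or 5-HT 2.6 μM (~EC60-70, 5 min) measured in its continued presence.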

[2] = test system: α-smooth muscle actin (α-SMA) mRNA; assay: Anti-remodelling activity in human lung fibroblasts (HFL1): TGFβ-induced α-SMA mRNA (Assay 4); format: cell-based; conditions: Homo sapiens, HFL1 cells, TGFβ 10 ng/ml, 24 h, read-out: Inhibition of α-SMA mRNA synthesis (%)
Method in brief: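 Real-time RT-PCR of α-SMA mRNA, GAPDH as reference, measured after 24 h exposure of low-serum-primed HFL1 cells to 10 ng/ml TGFβ with test compounds (3 and 30 μM) in 10% FBS medium. Readout is inhibition of TGFβ-driven α-SMA mRNA overexpression.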

[3] = test system: 5-HT-induced contractions in guinea pig ileum; assay: Inhibition of 5-HT-induced contractions in guinea pig ileum (Assay 3); conditions: Cavia porcellus, 5-HT 2.6 μM, read-out: Inhibition of 5-HT-induced contraction (%)
Method in brief: as §1

Chain of TRPV1 receptor (O35433 whole entry): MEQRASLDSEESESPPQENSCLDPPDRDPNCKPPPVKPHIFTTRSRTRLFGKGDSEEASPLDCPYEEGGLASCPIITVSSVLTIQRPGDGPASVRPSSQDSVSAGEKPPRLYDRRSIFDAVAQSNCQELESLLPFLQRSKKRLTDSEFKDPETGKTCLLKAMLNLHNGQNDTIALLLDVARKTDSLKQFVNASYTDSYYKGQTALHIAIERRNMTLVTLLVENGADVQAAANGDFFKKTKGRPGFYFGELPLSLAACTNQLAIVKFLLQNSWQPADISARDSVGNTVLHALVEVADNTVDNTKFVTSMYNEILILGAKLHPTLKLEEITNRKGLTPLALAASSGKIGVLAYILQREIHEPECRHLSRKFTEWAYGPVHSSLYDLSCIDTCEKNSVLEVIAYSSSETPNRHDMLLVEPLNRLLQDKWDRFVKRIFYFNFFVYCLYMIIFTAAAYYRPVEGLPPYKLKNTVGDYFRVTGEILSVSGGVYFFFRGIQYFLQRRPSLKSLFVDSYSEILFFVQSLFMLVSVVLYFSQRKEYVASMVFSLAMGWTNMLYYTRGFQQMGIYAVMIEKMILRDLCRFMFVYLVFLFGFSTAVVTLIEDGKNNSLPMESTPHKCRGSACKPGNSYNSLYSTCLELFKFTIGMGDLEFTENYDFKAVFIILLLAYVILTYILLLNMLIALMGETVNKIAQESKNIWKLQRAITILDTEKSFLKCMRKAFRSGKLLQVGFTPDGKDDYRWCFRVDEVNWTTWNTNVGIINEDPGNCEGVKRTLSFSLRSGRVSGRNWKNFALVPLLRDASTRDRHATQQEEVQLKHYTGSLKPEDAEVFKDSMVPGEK

SMILES	Emax (TRPV1 receptor) [%]	inhibition at 3 µM (5-lipoxygenase) [%]	inhibition at 30 µM (5-lipoxygenase) [%]	inhibition at 3 µM [1] [%]	inhibition at 30 µM [1] [%]	inhibition at 3 µM [2] [%]	inhibition at 30 µM [2] [%]	inhibition at 3 µM [3] [%]	inhibition at 30 µM [3] [%]
COc1cc(CCC(=O)CC(=O)c2ccccc2)ccc1O [Compound 69, 5-(4-Hydroxy-3-methoxyphenyl)-1-phenyl-pentane-1,3-dione]	38	89	96	9	41	10	34	9	63
COc1cc(CCC(=O)C(C)C(=O)c2ccccc2)ccc1O (centres unmarked) [Compound 11, 5-(4-Hydroxy-3-methoxy-phenyl)-2-methyl-1-phenyl-pentane-1,3-dione]	68	47	92	0	32	8	39	0	53
COc1cc(CCC(=O)CC(=O)C2(C)CC2)ccc1O [Compound 6, 5-(4-Hydroxy-3-methoxyphenyl)-1-(1-methylcyclopropyl)-pentane-1,3-dione]	24	47	78	0	12	-12	22	0	34
COc1cc(CCC(=O)CC(=O)C(C)(C)C)ccc1O [Compound 2, 6,6-Dimethyl-1-(4-hydroxy-3-methoxyphenyl)-heptane-3,5-dione]	96	30	76	0	28	5	27	8	79
COc1cc(CCC(=O)C(C)(C)C(=O)c2ccccc2)ccc1O [Compound 32, 2,2-Dimethyl-5-(4-hydroxy-3-methoxy-phenyl)-1-phenyl-pentane-1,3-dione]		45	96	15	89	13	58	9	93
